Patent US20160303141A1, “CORTEXOLONE 17alpha-PROPIONATE FOR USE IN THE TREATMENT OF SKIN WOUNDS AND/OR ATROPHIC SKIN DISORDERS” (CASSIOPEA S.P.A., priority 2013, published 2016)

Assays:
[1] = tested on: Adult human dermal fibroblasts (HDF); assay: In-vitro effect on synthesis of type I procollagen (PIP ELISA); format: cell-based; details: for Δ % vs. control (PIP) / PIP concentration: 48 h; for PIP concentration: supernatant; for Procollagen I Synthesis (Δ% vs. control): Table 2 summary; for effect on synthesis of type I procollagen (in words): same test and conditions as Example 4
Protocol: Adult human dermal fibroblasts (HDF) were appropriately grown, and were employed between 2nd and 4th passage. […] After the incubation the supernatant were collected and dosed for the terminal peptide of type I procollagen (PIP) with ELISA kit. The measurement of PIP concentration in the culture medium is representative for the production of collagen type I. The results of type I procollagen concentration (PIP) are reported in the Table 6 below: […]

cutaneous wounds = assay: In vivo wound healing activity, repTOP mitoIRE mouse model; details: 250 mg/mouse topical
Protocol: The wound healing activity of the cortexolone 17α-propionate on cutaneous wounds was evaluated in an in vivo test foreseeing the use of repTOP™ mitoIRE mouse model. RepTOP™ mitoIRE mice from TOP® S.r.l. are engineered for the ubiquitous and proliferation-regulated expression of luciferase in proliferating tissues by embedding the transgene containing the minimal promoter of Cyclin B2d driving the firefly luciferase gene within HS4 insulator sequences.
Cortexolone 17α-propionate was dissolved in 0.4% (v/v) tween 80 and 0.5% (w/v) carboxymethylcellulose in normal saline.
The test was carried out comparing the wound healing activity of cortexolone 17α-propionate at two different dosages (50 mg/mouse and 250 mg/mouse) versus the vehicle (i.e. 0.4% (v/v) tween 80 and 0.5% (w/v) carboxymethylcellulose in normal saline) and versus a comparator, i.e. Cicatrene® cream (Johnson&Johnson®), a drug product used in wound management and wound healing.
Animal treatments. The repTOP™ mitoIRE mice were shaved by VEET® depilatory cream a day before the treatment. A round full-thickness wound of 0.4 cm^2 area was made through the dorsal skin and the panniculus carnosus muscle of repTOP™ mitoIRE by using skin biopsy devices (HS biopsy punch).
In vivo test. In order to establish the proliferative stimulating activity of cortexolone 17α-propionate, the vehicle (200 μl/mouse), cortexolone 17α-propionate (50 mg/mouse), cortexolone 17α-propionate (250 mg/mouse) and Cicatrene® (200 mg/mouse) were spread topically on the wound of repTOP™ mitoIRE mice (4 mice per group of treatment), immediately after the generation of the round punch. Photon-emission was measured in wound area at the following times: time 0 and 1, 2, 3 and 6 days after the treatment. A representation of the area of wound selected for the measurements is depicted in FIG. 1.
In vivo imaging. […] Photon emission in wound area was measured using the Living Image Software (Caliper™, a Perkin Elmer™ company) and expressed as photon/second/cm^2/steradian (p/s/cm^2/sr). The measurement of wound areas was expressed as cm^2.

[2] = tested on: testosterone propionate (TP) response; assay: Local antiandrogenic activity, flank organ test in hamster; format: in vivo; details: for Percent inhibition of testosterone propionate (TP) response: topical on flank organ; for Mean inhibition (%): mean over daily doses 100, 200, 400 μg + 4 μg TP
[3] = tested on: Adult human dermal fibroblasts (HDF); assay: In-vitro effect on extra-cellular protein synthesis (Bradford); format: cell-based; details: for Δ % vs. control (protein concentration) / Protein concentration Treated: 72 h; for Protein concentration Treated: supernatant; for Protein synthesis (Δ% vs. control): Table 2 summary; for effect on extracellular protein synthesis (in words): same test and conditions as Example 3
Protocol: Adult human dermal fibroblasts (HDF) were appropriately grown, and were employed between 2nd and 6th passage. The fibroblasts, plated in a 24-wells plate at the density of 12×10^4 cells/mL (1 mL/well), were incubated for 72 hours with rhEGF (100 nM) as positive control, or with cortexolone 17α-propionate at concentration of 5 μM, 25 μM, 50 μM. After 72 h of incubation the supernatant were mixed with 1 mL of Bradford reagent and incubated for 45 minutes at room temperature. Each sample was then read in a spectrophotometer at 595 nm.

[4] = tested on: Adult human dermal fibroblasts (HDF); assay: In-vitro fibroblast proliferation (BrdU incorporation); format: cell-based; details: for Δ % vs. control (proliferation) / Absorbance ± SD Treated: 72 h; for Absorbance ± SD Treated: BrdU, 450 nm; for Fibroblast proliferation (Δ% vs. control): Table 2 summary; for proliferative stimulating effect (in words): same test and conditions as Example 1
Protocol: Fibroblast proliferation: Adult human dermal fibroblasts (HDF) were appropriately grown, and were employed between 2nd and 6th passage. […] Twenty-four hours before end of incubation, the cells were labelled with Bromo deoxyuridine (BrdU, 10 μL/well) and its incorporation into DNA was evaluated measuring the absorbance of the samples in an ELISA reader at 450 nm. The proliferation rate of the fibroblasts was evaluated on the increase of the absorbance of the samples.

[5] = tested on: Adult human dermal fibroblasts (HDF); assay: In-vitro fibroblast migration (image density); format: cell-based; details: for Image density 6 h: 6 h after insert removal; for Image density 24 h: 24 h after insert removal; for Image density t0: immediately after insert removal; for Δ (%) vs. vehicle (migration): increase t0-24 h
Protocol: Fibroblast migration: Adult human dermal fibroblasts (HDF) were appropriately grown, and were employed between 2nd and 6th passage. […] After incubation the culture-insert was removed and the cells were maintained in culture for further 24 hours. Immediately after insert removal, and at interval of 6 and 24 h, the plates were photographed by Digital Microscope Eyepiece. The entity of cell migration was measured using image analyzing software Image J, and was expressed as image density.

[6] = daily dose 100 μg test compound + 4 μg TP
[7] = daily dose 200 μg test compound + 4 μg TP
[8] = daily dose 400 μg test compound + 4 μg TP

In the case of `CCC(=O)O[C@]1(C(=O)CO)CC[C@H]2[C@@H]3CCC4=CC(=O)CC[C@]4(C)[C@H]3CC[C@@]21C` [Cortexolone 17α-propionate, cortexolone 17α-propionate], the “Δ % vs. control (PIP)” value ([1]; 10 μM) is reported as −8.27%, the PIP concentration ([1]; 10 μM) is reported as 949.50 ± 149.81 ng/mL and the “Δ % vs. control (PIP)” value ([1]; 50 μM) is reported as 199.59%. For the same molecule, the PIP concentration ([1]; 50 μM) was 3100.98 ± 152.59 ng/mL, the “Procollagen I Synthesis (Δ% vs. control)” value ([1]; 50 μM) was 199.6% and the “time of maximum increase of proliferative cells after administration” value (cutaneous wounds) was 3 days. For the same molecule, the “mean reduction in wound area” value (cutaneous wounds; after 3 days from administration) was 26%, the “increase of photon-emission from wounds with respect to time 0” value (cutaneous wounds; time 3 days) was 143% and the “Percent inhibition of testosterone propionate (TP) response” value (“Percent inhibition” below) [2, 6] was 62%. The “Percent inhibition” value [2, 7] was 69%, the “Percent inhibition” value [2, 8] was 86% and the “Mean inhibition (%)” value [2] was 72%. For the same molecule, the “Δ % vs. control (protein concentration)” value ([3]; 5 μM) was 0%, the “Protein concentration Treated” value ([3]; 5 μM) was 0.5 ± 0.056 mg/mL and the “Δ % vs. control (protein concentration)” value ([3]; 25 μM) was 12.18%. For the same molecule, the “Protein concentration Treated” value ([3]; 25 μM) was 0.884 ± 0.028 mg/mL, the “Δ % vs. control (protein concentration)” value ([3]; 50 μM) was 27.41% and the “Protein concentration Treated” value ([3]; 50 μM) was 0.846 ± 0.087 mg/mL. The “Protein synthesis (Δ% vs. control)” value ([3]; 50 μM) was 27.4%, the “Δ % vs. control (proliferation)” value ([4]; 1 μM) was −0.95% and the “Absorbance ± SD Treated” value ([4]; 1 μM) was 2.06 ± 0.15. For the same molecule, the “Δ % vs. control (proliferation)” value ([4]; 5 μM) was 6.71%, the “Absorbance ± SD Treated” value ([4]; 5 μM) was 2.05 ± 0.24 and the “Δ % vs. control (proliferation)” value ([4]; 25 μM) was 7.00%. The “Absorbance ± SD Treated” value ([4]; 25 μM) was 2.09 ± 0.19, the “Δ % vs. control (proliferation)” value ([4]; 50 μM) was 30.98% and the “Absorbance ± SD Treated” value ([4]; 50 μM) was 2.48 ± 0.23. For the same molecule, the “Fibroblast proliferation (Δ% vs. control)” value ([4]; 50 μM) was 31.0%, the “Increase from t0 − 24 h (image density)” value ([5]; 10 μM) was 35.2 and the “Image density 6 h” value ([5]; 10 μM) was 24.0 ± 2.4. For the same molecule, the “Image density 24 h” value ([5]; 10 μM) was 54.5 ± 2.5, the “Image density t0” value ([5]; 10 μM) was 19.3 ± 0.8 and the “Δ (%) vs. vehicle (migration)” value ([5]; 10 μM) was 30.3%. The “Increase from t0 − 24 h (image density)” value ([5]; 50 μM) was 44.0, the “Image density 6 h” value ([5]; 50 μM) was 25.1 ± 1.2 and the “Image density 24 h” value ([5]; 50 μM) was 64.1 ± 5.6. For the same molecule, the “Image density t0” value ([5]; 50 μM) was 20.1 ± 2.0 and the “Δ (%) vs. vehicle (migration)” value ([5]; 50 μM) was 62.9%.

With `O=C1O[C@H]([C@@H](O)CO)C(O)=C1O` [Vit. C, L-Ascorbic acid] the “Δ % vs. control (PIP)” value ([1]; 0.2 mM) was 260.87% and the PIP concentration ([1]; 0.2 mM) was 3735.27 ± 515.52 ng/mL.

`CCCC(=O)OCC(=O)[C@@]1(OC(=O)CCC)CC[C@H]2[C@@H]3CCC4=CC(=O)CC[C@]4(C)[C@H]3CC[C@@]21C` [Cortexolone 17α,21-dibutyrate, cortexolone 17α,21-dibutyrate] was tested, and the “Procollagen I Synthesis (Δ% vs. control)” value ([1]; 50 μM) was −2.8%, the “effect on synthesis of type I procollagen (in words)” value [1] was “did not show any effect in increasing the synthesis of type I procollagen” and the “Percent inhibition” value [2, 6] was 84%. The “Percent inhibition” value [2, 7] was 89%, the “Percent inhibition” value [2, 8] was 97% and the “Mean inhibition (%)” value [2] was 90%. The “Protein synthesis (Δ% vs. control)” value ([3]; 50 μM) was 0.6%, the “effect on extracellular protein synthesis (in words)” value [3] was “did not show any effect in increasing the extracellular protein synthesis” and the “Fibroblast proliferation (Δ% vs. control)” value ([4]; 50 μM) was 9.6%. The “proliferative stimulating effect (in words)” value [4] was “did not show any proliferative stimulating effect”.

“rhEGF: recombinant human Epidermal Growth Factor, known fibroblast proliferation promoter, positive control” was tested, and the “Δ % vs. control (protein concentration)” value ([3]; 100 nM) was 49.54%, the “Protein concentration Treated” value ([3]; 100 nM) was 0.978 ± 0.074 mg/mL and the “Δ % vs. control (proliferation)” value ([4]; 100 nM) was 49.49%. For the same molecule, the “Absorbance ± SD Treated” value ([4]; 100 nM) was 2.72 ± 0.22, the “Increase from t0 − 24 h (image density)” value ([5]; 100 nM) was 43.6 and the “Image density 6 h” value ([5]; 100 nM) was 21.6 ± 1.0. For the same molecule, the “Image density 24 h” value ([5]; 100 nM) was 65.7 ± 4.2, the “Image density t0” value ([5]; 100 nM) was 22.1 ± 2.9 and the “Δ (%) vs. vehicle (migration)” value ([5]; 100 nM) was 61.5%.

In the case of `CCCCC(=O)O[C@]1(C(=O)CO)CC[C@H]2[C@@H]3CCC4=CC(=O)CC[C@]4(C)[C@H]3CC[C@@]21C` [Cortexolone 17α-valerate, cortexolone 17α-valerate], the “Procollagen I Synthesis (Δ% vs. control)” value ([1]; 50 μM) is reported as −14.6%, the “effect on synthesis of type I procollagen (in words)” value [1] is reported as “did not show any effect in increasing the synthesis of type I procollagen” and the “Percent inhibition” value [2, 6] is reported as 66%. For the same molecule, the “Percent inhibition” value [2, 7] was 65%, the “Percent inhibition” value [2, 8] was 73% and the “Mean inhibition (%)” value [2] was 68%. For the same molecule, the “Protein synthesis (Δ% vs. control)” value ([3]; 50 μM) was −3.8%, the “effect on extracellular protein synthesis (in words)” value [3] was “did not show any effect in increasing the extracellular protein synthesis” and the “Fibroblast proliferation (Δ% vs. control)” value ([4]; 50 μM) was −33.8%. The “proliferative stimulating effect (in words)” value [4] was “did not show any proliferative stimulating effect”.

`C[C@]12CCC(=O)C=C1CC[C@@H]1[C@@H]2[C@@H](O)C[C@@]2(C)[C@H]1CC[C@]2(O)C(=O)CO` [Cortisol, cortisol, reference compound] was tested, and the “Δ % vs. control (PIP)” value ([1]; 50 μM) was −74.94%, the PIP concentration ([1]; 50 μM) was 259.36 ng/mL and the “Δ % vs. control (proliferation)” value ([4]; 50 μM) was −56.84%. The “Increase from t0 − 24 h (image density)” value ([5]; 50 μM) was 34.4, the “Image density 6 h” value ([5]; 50 μM) was 22.9 ± 2.7 and the “Image density 24 h” value ([5]; 50 μM) was 56.6 ± 4.4. For the same molecule, the “Image density t0” value ([5]; 50 μM) was 22.2 ± 3.2 and the “Δ (%) vs. vehicle (migration)” value ([5]; 50 μM) was 27.4%.
